Assay results taken from article PMC6934184, “Selective DNA-PKcs inhibition extends the therapeutic index of localized radiotherapy and chemotherapy” (The Journal of Clinical Investigation, 2019).

Target: T1, BRSK1 (SAD1) (Homo sapiens, UniProt Q8TDC3)
T1 construct: purchased Thermo Fisher Scientific (Life Technologies) SelectScreen
Experiment: SelectScreen Z'LYTE
Format: biochemical
Outline: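 Percent values come from Thermo SelectScreen profiling of NU5455, combining activity and binding assays. CSF1R was run in Z'LYTE format at Km app ATP, and CAMK1 in Adapta format with ATP listed at 10.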

T1 sequence (Q8TDC3 whole entry): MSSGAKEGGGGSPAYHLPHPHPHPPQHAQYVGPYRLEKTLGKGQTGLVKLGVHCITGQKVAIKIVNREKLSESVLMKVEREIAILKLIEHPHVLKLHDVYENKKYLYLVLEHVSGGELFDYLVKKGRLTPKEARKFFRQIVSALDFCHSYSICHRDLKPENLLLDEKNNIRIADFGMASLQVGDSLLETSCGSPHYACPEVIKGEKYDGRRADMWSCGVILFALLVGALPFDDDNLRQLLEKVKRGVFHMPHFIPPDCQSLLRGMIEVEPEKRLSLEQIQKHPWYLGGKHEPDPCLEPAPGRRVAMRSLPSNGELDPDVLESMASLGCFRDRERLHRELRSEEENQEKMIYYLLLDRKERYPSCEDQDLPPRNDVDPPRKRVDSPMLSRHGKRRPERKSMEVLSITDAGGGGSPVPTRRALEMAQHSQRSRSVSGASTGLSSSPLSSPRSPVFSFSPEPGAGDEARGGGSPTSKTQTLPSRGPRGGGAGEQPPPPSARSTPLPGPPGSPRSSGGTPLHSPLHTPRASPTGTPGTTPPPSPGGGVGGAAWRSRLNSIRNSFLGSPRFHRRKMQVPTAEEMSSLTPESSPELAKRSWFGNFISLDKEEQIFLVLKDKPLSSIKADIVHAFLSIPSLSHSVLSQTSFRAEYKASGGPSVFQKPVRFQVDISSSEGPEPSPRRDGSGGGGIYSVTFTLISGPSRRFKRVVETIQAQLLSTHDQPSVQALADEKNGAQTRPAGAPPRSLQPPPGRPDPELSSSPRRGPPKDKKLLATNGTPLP

With `CN(C(=O)CN1CCOCC1)c1ccc2sc3c(-c4cccc5c(=O)cc(N6CC7CCC(C6)O7)oc45)cccc3c2c1` [NU5455] as the molecule, how does the inhibition at 1 µM read?
The inhibition at 1 µM was -1.1%.
